Results published in patent US20160311826A1, “SGC STIMULATORS” (IRONWOOD PHARMACEUTICALS, INC., priority 2013, published 2016).
Read-outs that look alike come from different tables or passages of the source. Blank lines part the entries; values can stand above or below the molecule they belong to.

Tests used:
[1] = test system: lambs with acute pulmonary hypertension; details: cited from earlier work; for effect on mean arterial pressure / pulmonary vasodilation / transpulmonary cGMP release: inhaled microparticles with excipients, awake lambs, U-46619 infusion; for systemic arterial oxygenation: inhaled microparticles
[2] = molecular target: T1, human recombinant soluble guanylate cyclase enzyme α1β1 (h sGC) (Homo sapiens, UniProt Q02108+Q02153); assay: Purified human recombinant sGC α1β1 enzyme assay in the presence of DETA-NONOate (cGMP HTRF); format: biochemical
T1 construct: purchased Enzo Life Sciences ALX-201-177
T1 sequence (Q02108 1-690): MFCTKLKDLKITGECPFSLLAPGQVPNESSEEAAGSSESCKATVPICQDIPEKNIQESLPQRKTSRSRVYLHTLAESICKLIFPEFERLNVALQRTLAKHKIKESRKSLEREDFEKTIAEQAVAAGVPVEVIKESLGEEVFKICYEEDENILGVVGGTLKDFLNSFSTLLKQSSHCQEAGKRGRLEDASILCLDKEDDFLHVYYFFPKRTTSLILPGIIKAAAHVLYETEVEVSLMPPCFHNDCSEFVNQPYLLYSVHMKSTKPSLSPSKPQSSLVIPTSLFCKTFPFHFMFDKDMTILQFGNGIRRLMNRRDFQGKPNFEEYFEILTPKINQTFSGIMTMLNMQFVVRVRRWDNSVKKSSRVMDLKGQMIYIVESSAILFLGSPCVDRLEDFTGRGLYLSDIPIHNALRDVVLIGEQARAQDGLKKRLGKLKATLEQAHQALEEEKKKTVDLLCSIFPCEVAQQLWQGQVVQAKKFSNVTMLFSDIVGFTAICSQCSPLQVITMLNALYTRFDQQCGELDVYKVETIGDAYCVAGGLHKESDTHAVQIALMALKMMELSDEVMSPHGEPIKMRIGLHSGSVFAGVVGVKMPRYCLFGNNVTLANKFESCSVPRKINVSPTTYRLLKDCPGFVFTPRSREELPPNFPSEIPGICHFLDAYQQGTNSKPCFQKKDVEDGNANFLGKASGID
T1 sequence (Q02153 1-619): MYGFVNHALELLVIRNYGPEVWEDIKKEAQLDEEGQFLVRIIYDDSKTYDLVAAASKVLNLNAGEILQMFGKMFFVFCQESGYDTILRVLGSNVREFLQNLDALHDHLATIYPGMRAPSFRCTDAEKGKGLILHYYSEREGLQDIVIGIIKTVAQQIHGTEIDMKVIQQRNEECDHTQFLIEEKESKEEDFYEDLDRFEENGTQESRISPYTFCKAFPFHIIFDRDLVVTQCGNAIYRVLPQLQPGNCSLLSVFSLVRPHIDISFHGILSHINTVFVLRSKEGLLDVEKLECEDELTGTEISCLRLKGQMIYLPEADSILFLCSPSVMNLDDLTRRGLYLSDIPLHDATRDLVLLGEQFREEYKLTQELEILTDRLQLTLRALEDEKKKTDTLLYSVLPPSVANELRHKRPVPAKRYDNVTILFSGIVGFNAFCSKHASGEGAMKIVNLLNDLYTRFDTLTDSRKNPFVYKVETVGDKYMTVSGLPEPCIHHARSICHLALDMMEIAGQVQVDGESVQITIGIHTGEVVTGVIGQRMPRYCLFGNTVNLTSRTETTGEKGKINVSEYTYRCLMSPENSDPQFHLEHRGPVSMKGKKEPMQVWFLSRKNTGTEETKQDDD
Procedure: Purified human recombinant soluble guanylate cyclase enzyme α1β1 (h sGC) obtained from Enzo Life Sciences (P/N: ALX-201-177) was used to evaluate the activity of test compounds. The assay reactions contained 0.1 M Tris (pH 8.0), 0.5 mg/mL BSA, 2 mM DTT, 4 mM MgCl2, 30 uM DETA NONOate (Enzo Life Science P/N: ALX-430-014), and 12.5 ng/ml human soluble guanylate cyclase enzyme. […] Guanosine 5′-triphosphate (Sigma-Aldrich P/N: G8877) was added to a final concentration of 300 μM and enzyme reactions were incubated (100 μL, 384-well plate format) at 37° C. for 20 minutes. The controls contained 3% DMSO (low control), or 30 uM of Compound Y (high control). After the 20 minute incubation, the reaction was stopped with the addition of 100 μL of ice cold 20% acetic acid.
cGMP concentrations in all samples were determined using the cGMP HTRF (Cisbio P/N: 62GM2PEC) assay per manufacturer's instructions. A cGMP standard curve was fit using a 4-parameter fit (log(inhibitor) vs. response—variable slope) using GraphPad Prism Software v.6. Samples were diluted appropriately to ensure that values fell within the linear range of the standard curve. The EC50 was interpolated from the curve fit and is defined as the concentration at which the compound elicits 50% of the maximal response of the 30 uM of Compound Y, the high control compound.

[3] = molecular target: T2, soluble guanylate cyclase (sGC) (Homo sapiens, UniProt Q02108+Q02153); assay: sGC-HEK-cGMP assay with LC/MS detection; format: cell-based; details: HEK293 cells, 10 μM DETA-NONOate; concentration eliciting 50% of high control response (30 μM Compound Y); read-out: sGC_HEK_LC MS EC50 Abs
T2 construct: endogenously expressing soluble guanylate cyclase (sGC); endogenous in cells; host or cells: HEK293
T2 sequence (Q02153 1-619): T1 sequence (Q02153 1-619)
T2 sequence (Q02108 1-690): T1 sequence (Q02108 1-690)
Procedure: Human embryonic kidney cells (HEK293), endogenously expressing soluble guanylate cyclase (sGC), were used to evaluate the activity of test compounds. Compounds stimulating the sGC enzyme should cause an increase in the intracellular concentration of cGMP. HEK 293 cells were seeded in Dulbecco's Modification of Eagle's Medium supplemented with fetal bovine serum (10% final) and penicillin (100 U/mL)/streptomycin (100 ug/mL) in a […] at a density of 1.5×10^4 cells/well in a poly-D-lysine coated 384 well flat bottom plate. Cells were incubated overnight at 37° C. in a humidified chamber with 5% CO2. Medium was aspirated and cells were washed with 1× Hank's Buffered Saline Salt Solution […]. Cells were then incubated for 15 minutes at 37° C. with 50 μL of a 0.5 mM 3-isobutyl-1-methylxanthine (IBMX) solution. Test article and Diethylenetriamine NONOate (DETA-NONOate) solutions (x μM concentration for test article solution and 10 μM concentration for DETA-NONOate solution; wherein x is one of the following concentrations);
were then added to the assay mixture and the resulting mixture incubated at 37° C. for 20 minutes. After the 20 minute incubation, the assay mixture was aspirated and 10% acetic acid containing 150 ng/mL+3-cGMP (internal standard for LCMS) (50 μL) was added to the cells. The plate was incubated at 4° C. for 30 minutes in the acetic acid solution to stop the reaction and lyse the cells. The plates were then centrifuged at 1,000g for 3 minutes at 4° C. and the supernatant transferred to a clean reaction plate for LCMS analysis.
cGMP concentrations were determined from each sample using the LCMS conditions below (Table 2) and calculated standard curve. The standard curve was prepared in 10% acetic acid with 150 ng/mL+3cGMP (isotopically labelled cGMP with a weight 3 units higher than wild type) with the following final concentrations of cGMP in ng/mL: 1, 5, 10, 50, 100, 250, 500, 1000, 2000.
Data were normalized to a high control using the following equation: 100*(Sample−Low Control)/(High Control−Low Control), where the low control is the average of 16 samples treated with 1% DMSO, and the high control is the average of 16 samples treated with 30 μM of Compound Y depicted below. Data were fit using a 4-parameter fit (log(agonist) vs. response−variable slope) using GraphPad Prism Software v.5. n=2 for all compounds. The Absolute EC50 was interpolated from the curve fit and is defined as the concentration at which a given compound elicits 50% of the high control response. Compounds failing to elicit a minimum response of 50% are reported as >30 μM. For compounds run in duplicate or n higher than 2, the result herein given is the geometric mean of the several results obtained.
Code definitions for the whole cell HEK assay values, expressed as Absolute EC50 which is defined as the concentration at which a given compound elicits 50% of the high control response (Compound Y). Compounds failing to elicit a minimum response of 50% are reported as *.

[4] = 30 uM DETA NONOate, concentration eliciting 50% of high control response (30 uM Compound Y), read-out: sGC_Enz_HTRF_a1b1 EC50 Abs

EC50 [2, 4]: > 5 µM
Structure (SMILES): COc1cc(-c2ncc(F)c(=O)[nH]2)nn1Cc1ccccc1F [Compound I-5]

EC50 [2, 4]: > 5 µM
Structure (SMILES): COc1cc(-c2nccc(N)n2)nn1Cc1ccccc1F [Compound I-6]

EC50 [2, 4]: > 5 µM
Structure (SMILES): COc1cc(-c2ncc(F)c(NCC(=O)O)n2)nn1Cc1ccccc1F [Compound I-9]

EC50 [2, 4]: > 30 µM
Structure (SMILES): CC1(C(N)=O)C(=O)Nc2nc(-c3nn(Cc4ccccc4F)c(=O)[nH]3)nc(N)c21 (stereo not shown) [Compound I-10]

EC50 [2, 4]: 2 to 5 µM
Structure (SMILES): COc1cc(-c2ncc(F)c(NCCO)n2)nn1Cc1ccccc1F [Compound I-13]

EC50 [2, 4]: 2 to 5 µM
Structure (SMILES): COc1cc(-c2ncc(F)c(NCc3cc(=O)[nH]o3)n2)nn1Cc1ccccc1F [Compound I-19]

EC50 [2, 4]: < 2 µM
Structure (SMILES): COc1cc(-c2ncc(F)c(NCC(O)(C(N)=O)C(F)(F)F)n2)nn1Cc1ccccc1F (stereo not shown) [Compound I-20]

EC50 [2, 4]: > 5 µM
Structure (SMILES): CCOC(=O)C1(C)C(=O)Nc2nc(-c3nn(Cc4ccccc4F)c(=O)[nH]3)nc(N)c21 (stereo not shown) [Compound I-21]

EC50 [3]: < 0.1 µM
Structure (SMILES): COc1cc(-c2nc(N)c3c(n2)NC(=O)C3(C)C(=O)NC2CC2)nn1Cc1ccccc1F (stereo not shown) [Compound I-44]

EC50 [2, 4]: > 5 µM
Structure (SMILES): CC1(C(N)=O)C(=O)Nc2nc(-c3cc(O)n(Cc4ccccc4F)n3)nc(N)c21 (stereo not shown) [Compound I-48]

EC50 [2, 4]: > 5 µM
Structure (SMILES): Fc1cnc(-c2cc(OC(F)F)n(Cc3cccc(F)c3F)n2)nc1 [Compound I-59]

EC50 [3]: > 30 µM
Structure (SMILES): COc1cc(-c2ncc(F)c(N3CCS(=O)(=O)CC3)n2)nn1Cc1ccccc1F [Compound I-63]

EC50 [2, 4]: 2 to 5 µM
Structure (SMILES): COc1cc(-c2ncc(F)c(NCC(O)CO)n2)nn1Cc1ccccc1F (stereo not shown) [Compound I-64]

EC50 [2, 4]: 2 to 5 µM
Structure (SMILES): COc1cc(-c2ncc(F)c(N3CCC[C@H](C)[C@@H]3C(=O)O)n2)nn1Cc1ccccc1F [Compound I-70]

EC50 [3]: < 0.1 µM
Structure (SMILES): CCOC(=O)C1(C)C(=O)Nc2nc(-c3cc(OC(F)F)n(Cc4ccccc4F)n3)nc(N)c21 (stereo not shown) [Compound I-72]

Second part, the molecule before the results:

Structure (SMILES): Nc1nc(-c2nn(Cc3ccccc3F)c3ncccc23)ncc1C1CC1 [BAY 41-2272]
effect on mean arterial pressure [1]: without significant effect on mean arterial pressure
pulmonary vasodilation [1]: dose dependent pulmonary vasodilation
transpulmonary cGMP release [1]: increased transpulmonary cGMP release

Structure (SMILES): Nc1nc(-c2nn(Cc3ccccc3F)c3ncccc23)nc(N)c1N1CCOCC1 [BAY 41-8543]
magnitude and duration of pulmonary vasodilation induced by iNO ([1]; after inhaling the microparticles): augmented
effect on mean arterial pressure [1]: without significant effect on mean arterial pressure
pulmonary vasodilation [1]: dose dependent pulmonary vasodilation
transpulmonary cGMP release [1]: increased transpulmonary cGMP release
systemic arterial oxygenation [1]: increased systemic arterial oxygenation

Structure (SMILES): O=C(O)CCCCN(CCc1ccccc1OCc1ccc(CCc2ccccc2)cc1)Cc1ccc(C(=O)O)cc1 [BAY 58-2667]
pulmonary vasodilation and transpulmonary cGMP release after treatment with ODQ ([1]; inhaled microparticles after ODQ): greatly enhanced
effect on mean arterial pressure [1]: without significant effect on mean arterial pressure
pulmonary vasodilation [1]: dose dependent pulmonary vasodilation
transpulmonary cGMP release [1]: increased transpulmonary cGMP release
systemic arterial oxygenation [1]: increased systemic arterial oxygenation

Structure (SMILES): CCOC(=O)C1(C)C(=O)Nc2nc(-c3cc(OC)n(Cc4ccccc4F)n3)nc(N)c21 (stereo not shown) [Compound I-1, ethyl 4-amino-2-(1-(2-fluorobenzyl)-5-methoxy-1H-pyrazol-3-yl)-5-methyl-6-oxo-6,7-dihydro-5H-pyrrolo[2,3-d]pyrimidine-5-carboxylate]
EC50 [2, 4]: < 2 µM
EC50 [3]: < 0.1 µM

Structure (SMILES): COc1nc(-c2ncc(F)c(O)n2)nn1Cc1ccccc1F [Compound I-3]
EC50 [2, 4]: > 30 µM
EC50 [3]: > 30 µM

Structure (SMILES): O=c1[nH]c(-c2cc(OC(F)F)n(Cc3ccccc3F)n2)ncc1F [Compound I-4]
EC50 [2, 4]: > 5 µM

Structure (SMILES): COc1nc(-c2nc(N)c3c(n2)NC(=O)C3(C)C(N)=O)nn1Cc1ccccc1F (stereo not shown) [Compound I-17]
EC50 [2, 4]: > 5 µM

Structure (SMILES): Cn1c(-c2nc(N)c3c(n2)NC(=O)C3(C)C(N)=O)nn(Cc2ccccc2F)c1=O (stereo not shown) [Compound I-18]
EC50 [2, 4]: > 5 µM

Structure (SMILES): CCOC(=O)C1(C)C(=O)Nc2nc(-c3nn(Cc4ccccc4F)c(=O)n3C)nc(N)c21 (stereo not shown) [Compound I-29]
EC50 [2]: 2 to 5 µM

Structure (SMILES): CCOC(=O)C1(C)C(=O)Nc2nc(-c3nc(OC)n(Cc4ccccc4F)n3)nc(N)c21 (stereo not shown) [Compound I-30]
EC50 [2]: 2 to 5 µM

Structure (SMILES): COc1nc(-c2nc(N)c3c(n2)NC(=O)C3(C)C(=O)NC2CC2)nn1Cc1ccccc1F (stereo not shown) [Compound I-37]
EC50 [2, 4]: 2 to 5 µM

Structure (SMILES): Cn1c(-c2nc(N)c3c(n2)NC(=O)C3(C)C(=O)NC2CC2)nn(Cc2ccccc2F)c1=O (stereo not shown) [Compound I-38]
EC50 [2, 4]: < 2 µM

Structure (SMILES): O=c1onc2cnc3ccccc3n12 [ODQ, 1H-[1,2,4]oxadiazolo[4,3-a]quinoxalin-1-one]
effect on pulmonary vasodilator effect of iNO ([1]; intravenous administration): markedly reduced the pulmonary vasodilator effect of iNO
